Activity calls are given as the source filed them.
Legend:
[1] = target: DNA dC->dU-editing enzyme APOBEC-3G (Homo sapiens, UniProt Q9HC16); type: functional;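 also: Dose-response counterscreen measuring inhibition of APOBEC3G DNA deaminase activity, run while confirming APOBEC3A inhibitors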
[2] = target: DNA dC->dU-editing enzyme APOBEC-3A (Homo sapiens, UniProt P31941); test: Dose Response confirmation of small molecule APOBEC3A DNA Deaminase Inhibitors via a fluorescence-based single-stranded DNA deaminase assay. [Related pubchem assays (depositor defined):AID493011, AID493024]; type: functional
Beta-galactosidase = Beta-galactosidase (Escherichia coli, UniProt Q8VNN2); test: Dose response counterscreen for EBI2 assay utilizing the enzyme, b-galactosidase.; type: functional
[3] = inhibitors of intracellular T. cruzi replication, confirmation, NIH3T3 host cells, beta-gal luminescence (AID 2044); type: functional, cell-based;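 also: intracellular parasites grown in NIH/3T3 mouse fibroblasts as host cells; luminescent beta-galactosidase reporter signal from transgenic T. cruzi replicating inside host cells; inhibitors lower the luminescence signal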
[4] = cytotoxicity toward NIH3T3 fibroblasts, dose response, counter-screen, cell-based, ATP luminescence, mouse fibroblasts (AID 2010); type: functional;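 also: cells exposed to compound for about 90 hours before reading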
INS1 = test: beta cell apoptosis inhibitors, cytokine rescue, dose response, luminescence, retest (AID 449756); type: functional, cell-based; conditions: Rattus norvegicus;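 also: cell death triggered by IL-1 beta plus TNF-alpha plus IFN-gamma mixture; protective hits raise ATP signal compared with cytokine alone wells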
[5] = target: T1, DNA repair protein RAD52 homolog (Homo sapiens, UniProt P43351); type: functional, biochemical
T1 sequence (P43351 whole entry): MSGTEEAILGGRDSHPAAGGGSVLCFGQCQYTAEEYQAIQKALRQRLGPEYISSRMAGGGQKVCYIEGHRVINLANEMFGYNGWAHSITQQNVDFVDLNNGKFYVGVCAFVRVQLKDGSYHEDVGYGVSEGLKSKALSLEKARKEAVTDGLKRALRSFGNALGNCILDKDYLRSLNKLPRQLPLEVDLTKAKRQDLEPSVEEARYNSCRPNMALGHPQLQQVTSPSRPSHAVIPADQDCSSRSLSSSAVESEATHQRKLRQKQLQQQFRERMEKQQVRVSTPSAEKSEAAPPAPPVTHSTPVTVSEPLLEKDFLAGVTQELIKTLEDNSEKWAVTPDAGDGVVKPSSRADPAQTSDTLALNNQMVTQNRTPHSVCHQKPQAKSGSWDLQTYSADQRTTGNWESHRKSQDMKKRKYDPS

HEK293 = test: cells; conditions: Homo sapiens;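 also: cells exposed to compound for 14 hours overnight before viability readout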
[6] = cytotoxicity in HEK-293T cells, dose response, cytotoxicity control for TCR NF-kB inhibitor project, luminescence, T-cell screen hits (AID 489026); type: functional, cell-based;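 also: cells exposed to compound about 14 hours before the viability readout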
Tumor necrosis factor = Tumor necrosis factor (Homo sapiens, UniProt P01375); test: TNFa-triggered NF-kB activation inhibitors, SAR follow-up, cell-based, revised (AID 2337); type: functional
[7] = target: T2, Nucleotide-binding oligomerization domain-containing protein 1 (Homo sapiens, UniProt Q9Y239); test: NOD1 signaling inhibitors, SAR follow-up, revised (AID 2333); type: functional
T2 sequence (Q9Y239 whole entry): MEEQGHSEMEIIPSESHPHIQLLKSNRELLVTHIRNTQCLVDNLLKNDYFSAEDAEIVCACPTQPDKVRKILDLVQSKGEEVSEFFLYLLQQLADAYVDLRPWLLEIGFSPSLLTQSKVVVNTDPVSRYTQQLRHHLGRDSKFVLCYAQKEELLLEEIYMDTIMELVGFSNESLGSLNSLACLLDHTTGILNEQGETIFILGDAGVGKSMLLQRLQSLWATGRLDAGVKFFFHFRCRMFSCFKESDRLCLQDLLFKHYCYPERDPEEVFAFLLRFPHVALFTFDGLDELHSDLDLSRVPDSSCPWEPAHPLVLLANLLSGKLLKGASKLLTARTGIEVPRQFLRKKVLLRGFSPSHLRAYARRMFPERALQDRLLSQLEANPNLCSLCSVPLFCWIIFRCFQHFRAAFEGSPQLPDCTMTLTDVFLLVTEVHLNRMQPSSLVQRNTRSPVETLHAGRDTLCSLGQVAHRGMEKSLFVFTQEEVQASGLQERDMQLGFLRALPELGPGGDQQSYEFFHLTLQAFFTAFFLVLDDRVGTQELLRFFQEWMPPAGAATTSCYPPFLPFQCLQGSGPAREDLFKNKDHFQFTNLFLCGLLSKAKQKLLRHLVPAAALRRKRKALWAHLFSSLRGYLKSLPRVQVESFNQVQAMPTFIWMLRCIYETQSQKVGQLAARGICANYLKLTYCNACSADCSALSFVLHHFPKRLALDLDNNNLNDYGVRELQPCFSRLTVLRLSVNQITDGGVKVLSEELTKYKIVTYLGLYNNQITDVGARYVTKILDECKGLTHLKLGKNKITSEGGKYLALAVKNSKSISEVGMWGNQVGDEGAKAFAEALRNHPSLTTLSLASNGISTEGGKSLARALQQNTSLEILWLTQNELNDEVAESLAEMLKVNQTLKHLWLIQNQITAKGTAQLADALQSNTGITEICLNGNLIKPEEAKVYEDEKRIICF

Protein skinhead-1 = target: T3, Protein skinhead-1 (Caenorhabditis elegans, UniProt P34707); type: functional
T3 sequence (P34707 whole entry): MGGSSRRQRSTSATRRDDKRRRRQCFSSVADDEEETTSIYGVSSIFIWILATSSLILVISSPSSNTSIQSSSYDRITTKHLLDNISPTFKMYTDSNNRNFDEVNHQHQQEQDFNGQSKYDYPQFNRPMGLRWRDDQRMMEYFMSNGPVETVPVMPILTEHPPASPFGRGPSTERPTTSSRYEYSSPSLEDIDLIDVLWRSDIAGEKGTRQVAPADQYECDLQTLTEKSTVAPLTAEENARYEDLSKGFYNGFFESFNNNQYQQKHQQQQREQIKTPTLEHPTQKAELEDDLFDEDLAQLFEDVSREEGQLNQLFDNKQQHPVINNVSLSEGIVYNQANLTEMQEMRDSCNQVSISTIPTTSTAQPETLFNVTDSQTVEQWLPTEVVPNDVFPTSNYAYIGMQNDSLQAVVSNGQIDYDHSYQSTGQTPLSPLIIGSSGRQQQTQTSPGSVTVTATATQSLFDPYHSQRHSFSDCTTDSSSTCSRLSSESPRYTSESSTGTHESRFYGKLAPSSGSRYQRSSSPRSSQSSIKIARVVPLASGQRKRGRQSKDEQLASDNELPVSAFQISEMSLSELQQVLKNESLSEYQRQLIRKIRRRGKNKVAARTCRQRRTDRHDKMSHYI

[8] = target: T4, Corticotropin-releasing factor receptor 2/Corticotropin-releasing factor-binding protein (Homo sapiens, UniProt P24387+Q13324); test: activators of CRF receptor 2 with binding protein – uHTS hits, confirmation (AID 602473); type: functional; conditions: read-out: EC50_Mean
T4 sequence (Q13324 whole entry): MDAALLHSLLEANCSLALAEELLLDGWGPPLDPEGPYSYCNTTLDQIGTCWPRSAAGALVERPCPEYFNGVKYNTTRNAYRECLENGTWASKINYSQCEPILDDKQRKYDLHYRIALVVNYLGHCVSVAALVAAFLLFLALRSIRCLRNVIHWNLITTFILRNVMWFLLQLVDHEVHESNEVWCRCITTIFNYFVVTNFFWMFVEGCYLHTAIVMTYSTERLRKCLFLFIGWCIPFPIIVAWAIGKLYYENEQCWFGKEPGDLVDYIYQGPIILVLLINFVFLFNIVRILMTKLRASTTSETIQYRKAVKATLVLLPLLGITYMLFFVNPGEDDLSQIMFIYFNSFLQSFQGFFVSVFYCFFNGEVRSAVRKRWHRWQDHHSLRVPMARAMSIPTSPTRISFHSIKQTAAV
T4 sequence (P24387 whole entry): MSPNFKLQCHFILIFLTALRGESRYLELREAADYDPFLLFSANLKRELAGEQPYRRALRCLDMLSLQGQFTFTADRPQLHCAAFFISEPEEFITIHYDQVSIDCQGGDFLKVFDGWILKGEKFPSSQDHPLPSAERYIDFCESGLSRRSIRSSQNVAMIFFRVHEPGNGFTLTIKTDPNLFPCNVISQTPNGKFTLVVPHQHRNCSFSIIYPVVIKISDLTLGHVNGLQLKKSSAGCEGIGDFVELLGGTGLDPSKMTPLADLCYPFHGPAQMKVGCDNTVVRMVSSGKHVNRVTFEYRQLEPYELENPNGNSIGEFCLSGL

[9] = target: T4, Corticotropin-releasing factor receptor 2/Corticotropin-releasing factor-binding protein; test: Dose Response confirmation of uHTS hits for small molecule antagonists of the CRF-binding protein and CRF-R2 receptor complex.; type: functional; conditions: read-out: IC50_Mean
[10] = HepG2 cell cytotoxicity, dose response, cytotoxicity control, plate reader, cherry-pick, antagonist series (AID 743416); type: functional, cell-based
[11] = A549 cell cytotoxicity, dose response, cytotoxicity control, plate reader, cherry-pick, antagonist series (AID 743412); type: functional, cell-based

Chain of Beta-galactosidase (Q8VNN2 whole entry): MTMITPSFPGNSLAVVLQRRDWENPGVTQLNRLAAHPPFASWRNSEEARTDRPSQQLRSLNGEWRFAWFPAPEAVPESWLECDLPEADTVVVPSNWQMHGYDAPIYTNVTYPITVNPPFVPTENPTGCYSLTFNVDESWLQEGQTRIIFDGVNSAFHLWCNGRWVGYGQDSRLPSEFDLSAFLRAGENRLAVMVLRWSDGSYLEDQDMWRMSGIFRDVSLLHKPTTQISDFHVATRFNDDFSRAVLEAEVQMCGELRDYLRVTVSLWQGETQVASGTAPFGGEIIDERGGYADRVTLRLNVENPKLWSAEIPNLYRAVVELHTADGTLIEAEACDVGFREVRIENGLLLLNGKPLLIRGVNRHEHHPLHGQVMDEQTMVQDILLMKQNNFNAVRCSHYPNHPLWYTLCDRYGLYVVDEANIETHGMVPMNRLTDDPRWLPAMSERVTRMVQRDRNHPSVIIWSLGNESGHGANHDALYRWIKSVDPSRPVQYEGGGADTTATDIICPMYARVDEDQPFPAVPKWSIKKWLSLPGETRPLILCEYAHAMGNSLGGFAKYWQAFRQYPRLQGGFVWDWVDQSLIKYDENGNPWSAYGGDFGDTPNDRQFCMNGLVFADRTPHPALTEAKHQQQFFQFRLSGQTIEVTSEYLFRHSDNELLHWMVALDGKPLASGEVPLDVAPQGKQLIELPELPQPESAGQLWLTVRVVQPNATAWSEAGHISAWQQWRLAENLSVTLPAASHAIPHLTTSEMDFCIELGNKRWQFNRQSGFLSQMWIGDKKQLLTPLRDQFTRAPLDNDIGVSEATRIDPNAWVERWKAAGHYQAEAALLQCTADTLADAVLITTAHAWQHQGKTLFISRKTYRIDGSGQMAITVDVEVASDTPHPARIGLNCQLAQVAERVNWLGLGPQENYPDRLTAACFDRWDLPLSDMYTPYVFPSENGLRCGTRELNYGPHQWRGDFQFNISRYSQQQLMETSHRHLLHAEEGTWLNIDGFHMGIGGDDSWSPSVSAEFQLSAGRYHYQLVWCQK
Chain of DNA dC->dU-editing enzyme APOBEC-3A (P31941 whole entry): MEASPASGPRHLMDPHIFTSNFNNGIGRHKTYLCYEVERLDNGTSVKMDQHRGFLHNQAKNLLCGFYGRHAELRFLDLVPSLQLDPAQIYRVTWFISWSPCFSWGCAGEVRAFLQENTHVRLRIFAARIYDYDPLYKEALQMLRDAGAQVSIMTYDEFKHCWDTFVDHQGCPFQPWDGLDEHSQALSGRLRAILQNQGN
Chain of DNA dC->dU-editing enzyme APOBEC-3G (Q9HC16 whole entry): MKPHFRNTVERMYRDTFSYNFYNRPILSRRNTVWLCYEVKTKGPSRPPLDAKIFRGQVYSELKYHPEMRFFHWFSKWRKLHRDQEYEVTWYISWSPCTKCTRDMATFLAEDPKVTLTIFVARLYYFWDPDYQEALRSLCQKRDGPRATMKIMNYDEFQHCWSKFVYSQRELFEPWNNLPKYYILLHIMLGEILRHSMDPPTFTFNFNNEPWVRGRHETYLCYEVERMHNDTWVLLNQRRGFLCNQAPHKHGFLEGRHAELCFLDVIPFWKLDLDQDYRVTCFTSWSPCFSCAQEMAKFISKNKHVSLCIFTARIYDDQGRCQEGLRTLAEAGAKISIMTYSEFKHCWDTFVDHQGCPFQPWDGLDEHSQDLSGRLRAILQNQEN
Chain of Tumor necrosis factor (P01375 whole entry, the tested form may be a part): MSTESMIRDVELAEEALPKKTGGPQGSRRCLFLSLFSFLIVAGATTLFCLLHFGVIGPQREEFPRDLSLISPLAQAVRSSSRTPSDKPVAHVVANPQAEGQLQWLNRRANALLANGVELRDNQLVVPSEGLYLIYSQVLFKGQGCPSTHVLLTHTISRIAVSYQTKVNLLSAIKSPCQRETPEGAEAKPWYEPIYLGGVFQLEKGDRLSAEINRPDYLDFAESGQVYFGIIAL

| IC50 (Beta-galactosidase) | Compound | IC50 [1] | IC50 [2] | also measured |
| --- | --- | --- | --- | --- |
| – | CN(Cc1ccccc1)C(=O)c1ncn(C)c1C(=O)N(C)Cc1ccccc1 | > 100 µM (inactive) | 3.15 µM (active) | – |
| > 80 µM (inactive) | Cc1sc2nc(C3CC3)nc(N3CCN(C(=O)c4ccc(Cl)cc4)CC3)c2c1C | – | – | – |
| – | CC1(C)CC(N2CCN(c3ccccc3)CC2)=CC(=[N+]2CCCC2)C1 | 2.24 µM (active) | 2.15 µM (active) | EC50 [3]: 0.263 µM (active); EC50 [4]: > 60 µM (not active); AC50 (INS1): 1.81 µM (active) |
| – | Cn1c(C(=O)NCCCN2CCCCCC2)cc2c(=O)n(C)c3ccccc3c21 | – | – | AC50 [5]: 12.4 µM (active) |
| – | CC(=O)c1ccc(N2CCN(S(=O)(=O)c3ccc4c(c3)CC(C)N4C(=O)C3CC3)CC2)cc1 (stereo unspecified) | – | – | IC50 (HEK293): > 20 µM (inactive); IC50 [6]: > 80 µM (inactive); IC50 (Tumor necrosis factor): 3.18 µM (active); IC50 [7]: 8.77 µM (active) |
| – | COc1ccc2[nH]c(=O)c(CN(C(=O)c3ccco3)C(C)C)cc2c1 | 6.32 µM (active) | 6.26 µM (active) | – |
| – | Cc1ccc(/C=C2/SC(Nc3ccc(F)cc3)=NC2=O)s1 | 7.58 µM (active) | 3.22 µM (active) | IC50 (Protein skinhead-1): > 100 µM (inactive) |
| – | CCN1C(NCCOC)=N[C@@H](c2ccccc2)[C@H](C(=O)OC)[C@H]1C | 4.28 µM (active) | 4.47 µM (active) | – |
| > 80 µM (inactive) | CCOC(=O)N1CCN(C(=O)c2cc3c(O)nc4ccccc4c3s2)CC1 | – | – | – |
| > 80 µM (inactive) | CCc1ccc(CN(C)C(=O)c2cc(=O)c3ccccc3o2)cc1 | – | – | – |
| > 80 µM (inactive) | O=C(COc1ccc2ccccc2c1)N1CCN(C(=O)c2ccc([N+](=O)[O-])cc2)CC1 | – | – | EC50 [8]: > 53 µM (inactive); IC50 [9]: > 47.1 µM (inactive) |
| – | CC(=O)Nc1ccc(CNc2nc(NCCN(C)C)nc3cc(-c4ccccc4)sc23)cc1 | – | – | AC50 [5]: 1.37 µM (active) |
| – | Cc1ccc(NC(=O)c2ncn(CC(=O)N3CCN(c4ccccn4)CC3)n2)cc1C | – | – | AC50 [10]: > 52 µM (inactive); AC50 [11]: > 52 µM (inactive) |
| 121 µM (inactive) | CCOC(=O)N(C)c1c(CC)nc2c(OCc3ccc(Cl)cc3Cl)cccn12 | – | – | – |
| – | CC(=O)Nc1ccc(Nc2cc(C)nc(Nc3ccc(NC(C)=O)cc3)n2)cc1 | 16.4 µM (active) | 11 µM (active) | – |
